Structures are written as SMILES.

This is an account of results in patent US9434747B2, “Methods of treating diabetes” (Medivation Technologies, Inc., priority 2011, dated 2016).

Experiment [1] addresses T1, human recombinant adrenergic α2B receptor (Homo sapiens, UniProt P18089).
T1 construct: expressed in transfected cells; host or cells: Chinese hamster ovary (CHO) K1 cells
T1 sequence (P18089 1-450): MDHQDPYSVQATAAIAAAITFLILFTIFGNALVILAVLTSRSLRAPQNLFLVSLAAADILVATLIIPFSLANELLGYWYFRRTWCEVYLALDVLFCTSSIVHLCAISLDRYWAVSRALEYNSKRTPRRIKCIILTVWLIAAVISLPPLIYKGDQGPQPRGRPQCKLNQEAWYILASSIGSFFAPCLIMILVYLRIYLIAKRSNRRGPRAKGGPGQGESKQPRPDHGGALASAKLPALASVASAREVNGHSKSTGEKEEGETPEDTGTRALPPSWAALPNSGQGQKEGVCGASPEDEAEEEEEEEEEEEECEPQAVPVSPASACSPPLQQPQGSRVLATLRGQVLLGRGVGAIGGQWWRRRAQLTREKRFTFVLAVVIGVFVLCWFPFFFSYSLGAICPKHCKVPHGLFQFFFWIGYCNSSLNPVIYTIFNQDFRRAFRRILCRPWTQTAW
The experiment can be described thus: Radioligand binding assay, adrenergic α2B ([3H]Rauwolscine). As to conditions: compound at 0.1 μM; 2.5 nM [3H]Rauwolscine; CHO-K1 cells; read-out: Percentage inhibition of ligand binding, Adrenergic α2B. How it is done: To evaluate in radioligand binding assays the activity of compounds, human recombinant adrenergic α2B receptor expressed in Chinese hamster ovary (CHO) K1 cells (Uhlen, S. et al, Eur. J. Pharmacol. 343(1):93, 1998) in a modified Tris-HCl buffer (50 mM Tris-HCl, pH 7.4, 12.5 mM MgCl2, 1 mM EDTA, 0.2% BSA) was used. Compounds were incubated with 2.5 nM [^3H]Rauwolscine for 60 min at 25° C. Non-specific binding was estimated in the presence of 10 μM Prazosin. Receptor proteins were filtered and washed, the filters were then counted to determine [^3H]Rauwolscine specifically bound. Compounds were screened at 1 μM or lower, using 1% DMSO as vehicle. Compounds were tested in this biochemical assay and percent inhibition of specific binding was determined. Biochemical assay results are presented as the percent inhibition of specific binding in Tables B1A-B1D.

Experiment [2] addresses T2, rat adrenergic α1B receptor (Rattus norvegicus, UniProt P15823).
T2 construct: rat adrenergic α1B receptor obtained from Wistar Rat liver; from tissue; host or cells: Wistar rat liver
T2 sequence (P15823 1-515): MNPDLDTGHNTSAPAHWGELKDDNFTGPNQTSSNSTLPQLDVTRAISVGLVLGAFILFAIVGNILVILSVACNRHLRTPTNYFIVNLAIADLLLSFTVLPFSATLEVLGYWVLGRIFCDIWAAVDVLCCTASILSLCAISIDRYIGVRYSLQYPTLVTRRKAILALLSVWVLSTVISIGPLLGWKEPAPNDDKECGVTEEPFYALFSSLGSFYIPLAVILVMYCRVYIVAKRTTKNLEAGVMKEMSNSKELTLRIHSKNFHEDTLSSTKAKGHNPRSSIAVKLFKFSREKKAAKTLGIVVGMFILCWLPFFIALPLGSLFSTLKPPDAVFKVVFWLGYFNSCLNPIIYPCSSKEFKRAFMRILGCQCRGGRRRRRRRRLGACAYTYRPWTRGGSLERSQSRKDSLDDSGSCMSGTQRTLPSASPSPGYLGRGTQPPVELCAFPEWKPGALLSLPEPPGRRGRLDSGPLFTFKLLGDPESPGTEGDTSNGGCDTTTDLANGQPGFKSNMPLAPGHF
The experiment can be described thus: Radioligand binding assay, adrenergic α1B ([3H]Prazosin). To be noted: compound at 0.1 μM; 0.25 nM [3H]Prazosin; Wistar rat liver; read-out: Percentage inhibition of ligand binding, Adrenergic α1B. The procedure:
To evaluate in radioligand binding assays the activity of compounds, rat adrenergic α1B receptor obtained from Wistar Rat liver (Garcia-S'ainz, J. et al, Biochem. Biophys. Res. Commun. 186:760, 1992; Michel, A. et al, Br. J. Pharmacol. 98:883, 1989) in a modified Tris-HCl buffer (50 mM Tris-HCl buffer, pH 7.4, 0.5 mM EDTA) was used. Compounds were incubated with 0.25 nM [^3H]Prazosin for 60 min at 25° C. Non-specific binding was estimated in the presence of 10 μM phentolamine. Receptor proteins were filtered and washed, the filters were then counted to determine [^3H]Prazosin specifically bound. Compounds were screened at 1 μM or lower, using 1% DMSO as vehicle. Compounds were tested in this biochemical assay and percent inhibition of specific binding was determined. Biochemical assay results are presented as the percent inhibition of specific binding in Tables B1A-B1D.

The target in experiment [3] is T3, human recombinant adrenergic α2A receptor (Homo sapiens, UniProt P08913).
T3 construct: expressed in transfected cells; host or cells: insect Sf9 cells
T3 sequence (P08913 1-465): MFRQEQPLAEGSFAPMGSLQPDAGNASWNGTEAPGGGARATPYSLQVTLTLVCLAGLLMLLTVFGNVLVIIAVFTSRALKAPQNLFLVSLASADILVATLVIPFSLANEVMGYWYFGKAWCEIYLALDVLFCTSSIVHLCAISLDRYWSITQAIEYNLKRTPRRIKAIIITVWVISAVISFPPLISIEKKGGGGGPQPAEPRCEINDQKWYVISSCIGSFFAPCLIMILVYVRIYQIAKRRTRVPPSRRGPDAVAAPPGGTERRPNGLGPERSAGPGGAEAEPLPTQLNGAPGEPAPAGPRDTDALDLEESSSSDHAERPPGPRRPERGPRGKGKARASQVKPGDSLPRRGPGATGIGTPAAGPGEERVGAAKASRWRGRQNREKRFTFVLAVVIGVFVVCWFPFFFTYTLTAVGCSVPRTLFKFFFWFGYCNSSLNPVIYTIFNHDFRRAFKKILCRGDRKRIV
The experiment can be described thus: Radioligand binding assay, adrenergic α2A ([3H]MK-912). To be noted: compound at 0.1 μM; 1 nM [3H]MK-912; Sf9 cells; read-out: Percentage inhibition of ligand binding, Adrenergic α2A. The procedure:
To evaluate in radioligand binding assays the activity of compounds, human recombinant adrenergic α2A receptor expressed in insect Sf9 cells (Uhlen, S. et al, J. Pharmacol. Exp. Ther. 271:1558, 1994) in a modified Tris-HCl buffer (50 mM Tris-HCl, pH 7.4, 12.5 mM MgCl2, 2 mM EDTA) was used. Compounds were incubated with 1 nM [^3H]MK-912 for 60 min at 25° C. MK912 is (2S-trans)-1,3,4,5′,6,6′,7,12b-octahydro-1′,3′-dimethyl-spiro[2H-benzofuro[2,3-a]quinolizine-2,4′(1′H)-pyrimidin]-2′(3′H)-one hydrochloride. Non-specific binding was estimated in the presence of 10 μM WB-4101 (2-(2,6-Dimethoxyphenoxyethyl)aminomethyl-1,4-benzodioxane hydrochloride). Receptor proteins were filtered and washed, the filters were then counted to determine [^3H]MK-912 specifically bound. Compounds were screened at 1 μM or lower, using 1% DMSO as vehicle. Compounds were tested in this biochemical assay and percent inhibition of specific binding was determined. Biochemical assay results are presented as the percent inhibition of specific binding in Tables B1A-B1D.

Experiment [4] addresses T4, human recombinant adrenergic α1D receptor (Homo sapiens, UniProt P25100).
T4 construct: expressed in transfected cells; host or cells: human embryonic kidney (HEK-293) cells
T4 sequence (P25100 1-572): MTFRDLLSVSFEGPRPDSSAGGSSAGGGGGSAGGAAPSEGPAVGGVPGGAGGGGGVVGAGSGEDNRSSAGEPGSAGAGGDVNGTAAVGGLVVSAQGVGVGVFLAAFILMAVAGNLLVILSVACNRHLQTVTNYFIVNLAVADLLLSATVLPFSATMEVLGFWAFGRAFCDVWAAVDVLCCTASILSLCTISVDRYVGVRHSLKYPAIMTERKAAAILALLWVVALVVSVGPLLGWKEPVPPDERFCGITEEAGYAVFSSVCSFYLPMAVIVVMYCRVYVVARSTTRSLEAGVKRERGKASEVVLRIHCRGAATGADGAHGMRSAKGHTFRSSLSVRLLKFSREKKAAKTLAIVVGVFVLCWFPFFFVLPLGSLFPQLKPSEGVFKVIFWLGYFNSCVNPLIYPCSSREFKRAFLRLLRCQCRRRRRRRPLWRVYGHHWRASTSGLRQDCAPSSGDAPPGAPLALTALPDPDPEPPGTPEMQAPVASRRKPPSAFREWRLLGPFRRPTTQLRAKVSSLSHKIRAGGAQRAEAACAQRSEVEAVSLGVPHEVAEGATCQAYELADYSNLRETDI
The experiment can be described thus: Radioligand binding assay, adrenergic α1D ([3H]Prazosin). As to conditions: compound at 0.1 μM; 0.6 nM [3H]Prazosin; HEK-293 cells; read-out: Percentage inhibition of ligand binding, Adrenergic α1D. How it is done:
To evaluate in radioligand binding assays the activity of compounds of the invention, human recombinant adrenergic α1D receptor expressed in human embryonic kidney (HEK-293) cells (Kenny, B. et al, Br. J. Pharmacol. 115(6):981, 1995) in a 50 mM Tris-HCl buffer, pH 7.4, was used. Compounds were incubated with 0.6 nM [3H]Prazosin for 60 min at 25° C. Non-specific binding was estimated in the presence of 10 μM phentolamine. Receptor proteins were filtered and washed, the filters were then counted to determine [3H]Prazosin specifically bound. Compounds were screened at 1 μM or lower, using 1% DMSO as vehicle. Biochemical assay results are presented as the percent inhibition of specific binding in Tables B1A-B1D.

Broadly, the inhibition is the drop in the measured response relative to a control, in per cent. For `Cc1cc2c3c(c1)c1c(n3CC2c2ccc(C)nc2)CCN(C)C1` (centres unmarked) [Compound B210], the inhibition at 0.1 µM in experiment [1] is 14%.

As for `Cc1cc(-c2ccc(F)cc2)c2[nH]c3c(c2c1)CN(C)CC3` [Compound A7], the inhibition at 0.1 µM was 2% in experiment [2], 10% in experiment [3], 4% in experiment [4] and -9% in experiment [1].
